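Grown in 96-well plates, cells were treated for 48 hours with each compound at five concentrations. Insufficient inhibition: endpoint recorded as highest concentration tested. GI50 is the concentration that inhibits growth by half. TGI: total growth inhibition.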
Key:
Experiment in all cases: growth of human tumour cells (NCI), 48 h
786-0 renal = tested on: 786-0 renal
A498 renal = tested on: A498 renal
A549 NSCLC = tested on: A549 NSCLC
ACHN renal = tested on: ACHN renal
BT-549 breast = tested on: BT-549 breast
CAKI-1 renal = tested on: CAKI-1 renal
CCRF-CEM leukemia = tested on: CCRF-CEM leukemia
COLO 205 colon = tested on: COLO 205 colon
DU-145 prostate = tested on: DU-145 prostate
EKVX NSCLC = tested on: EKVX NSCLC
HCT-116 colon = tested on: HCT-116 colon
HCT-15 colon = tested on: HCT-15 colon
HL-60(TB) leukemia = tested on: HL-60(TB) leukemia
HOP-62 NSCLC = tested on: HOP-62 NSCLC
HOP-92 NSCLC = tested on: HOP-92 NSCLC
HS 578T breast = tested on: HS 578T breast
HT29 colon = tested on: HT29 colon
IGROV1 ovarian = tested on: IGROV1 ovarian
K-562 leukemia = tested on: K-562 leukemia
KM12 colon = tested on: KM12 colon
LOX IMVI melanoma = tested on: LOX IMVI melanoma
M14 melanoma = tested on: M14 melanoma
MALME-3M melanoma = tested on: MALME-3M melanoma
MCF7 breast = tested on: MCF7 breast
MDA-MB-231 breast = tested on: MDA-MB-231 breast
MDA-MB-435 = tested on: MDA-MB-435
MOLT-4 leukemia = tested on: MOLT-4 leukemia
NCI-H226 lung = tested on: NCI-H226 lung
NCI-H23 lung = tested on: NCI-H23 lung
NCI-H460 lung = tested on: NCI-H460 lung
NCI-H522 lung = tested on: NCI-H522 lung
NCI/ADR-RES ovarian = tested on: NCI/ADR-RES ovarian
OVCAR-3 ovarian = tested on: OVCAR-3 ovarian
OVCAR-4 ovarian = tested on: OVCAR-4 ovarian
OVCAR-5 ovarian = tested on: OVCAR-5 ovarian
OVCAR-8 ovarian = tested on: OVCAR-8 ovarian
PC-3 prostate = tested on: PC-3 prostate
RPMI-8226 leukemia = tested on: RPMI-8226 leukemia
RXF 393 renal = tested on: RXF 393 renal
SF-268 CNS = tested on: SF-268 CNS
SF-295 CNS = tested on: SF-295 CNS
SF-539 CNS = tested on: SF-539 CNS
SK-MEL-2 melanoma = tested on: SK-MEL-2 melanoma
SK-MEL-28 melanoma = tested on: SK-MEL-28 melanoma
SK-MEL-5 melanoma = tested on: SK-MEL-5 melanoma
SK-OV-3 ovarian = tested on: SK-OV-3 ovarian
SN12C renal = tested on: SN12C renal
SNB-19 CNS = tested on: SNB-19 CNS
SNB-75 CNS = tested on: SNB-75 CNS
SR leukemia = tested on: SR leukemia
SW-620 colon = tested on: SW-620 colon
T-47D breast = tested on: T-47D breast
TK-10 renal = tested on: TK-10 renal
U251 CNS = tested on: U251 CNS
UACC-257 melanoma = tested on: UACC-257 melanoma
UACC-62 melanoma = tested on: UACC-62 melanoma
UO-31 renal = tested on: UO-31 renal

Question: Which results are given for `O=[N+]([O-])c1cc([N+](=O)[O-])c(NN=C(c2ccc(O)cc2)c2ccc(O)cc2)cc1Cl`?
Answer: GI50 (786-0 renal): 2150 nM; TGI (786-0 renal): 4260 nM; GI50 (A498 renal): 2020 nM; TGI (A498 renal): 3640 nM; GI50 (A549 NSCLC): 2840 nM; TGI (A549 NSCLC): 6590 nM; GI50 (ACHN renal): 1880 nM; TGI (ACHN renal): 3450 nM; GI50 (BT-549 breast): 2080 nM; TGI (BT-549 breast): 4460 nM; GI50 (CAKI-1 renal): 1700 nM; TGI (CAKI-1 renal): 3340 nM; GI50 (CCRF-CEM leukemia): 716 nM; TGI (CCRF-CEM leukemia): 2290 nM; GI50 (COLO 205 colon): 2400 nM; TGI (COLO 205 colon): 5310 nM; GI50 (DU-145 prostate): 1140 nM; TGI (DU-145 prostate): 2640 nM; GI50 (EKVX NSCLC): 2330 nM; TGI (EKVX NSCLC): 5100 nM; GI50 (HCT-116 colon): 1230 nM; TGI (HCT-116 colon): 3110 nM; GI50 (HCT-15 colon): 407 nM; TGI (HCT-15 colon): 1520 nM; GI50 (HL-60(TB) leukemia): 684 nM; TGI (HL-60(TB) leukemia): 2420 nM; GI50 (HOP-62 NSCLC): 2440 nM; TGI (HOP-62 NSCLC): 4990 nM; GI50 (HOP-92 NSCLC): 463 nM; TGI (HOP-92 NSCLC): 2480 nM; GI50 (HS 578T breast): 742 nM; TGI (HS 578T breast): 2040 nM; GI50 (HT29 colon): 1540 nM; TGI (HT29 colon): 4070 nM; GI50 (IGROV1 ovarian): 449 nM; TGI (IGROV1 ovarian): 1570 nM; GI50 (K-562 leukemia): 4890 nM; TGI (K-562 leukemia): > 100000 nM; GI50 (KM12 colon): 1830 nM; TGI (KM12 colon): 3730 nM; GI50 (LOX IMVI melanoma): 409 nM; TGI (LOX IMVI melanoma): 1600 nM; GI50 (M14 melanoma): 1830 nM; TGI (M14 melanoma): 3940 nM; GI50 (MALME-3M melanoma): 1970 nM; TGI (MALME-3M melanoma): 3980 nM; GI50 (MCF7 breast): 1370 nM; TGI (MCF7 breast): 3300 nM; GI50 (MDA-MB-231 breast): 1740 nM; TGI (MDA-MB-231 breast): 3290 nM; GI50 (MDA-MB-435): 1820 nM; TGI (MDA-MB-435): 3600 nM; GI50 (MOLT-4 leukemia): 832 nM; TGI (MOLT-4 leukemia): 3110 nM; GI50 (NCI-H226 lung): 2010 nM; TGI (NCI-H226 lung): 3840 nM; GI50 (NCI-H23 lung): 1980 nM; TGI (NCI-H23 lung): 4450 nM; GI50 (NCI-H460 lung): 1920 nM; TGI (NCI-H460 lung): 4000 nM; GI50 (NCI-H522 lung): 2000 nM; TGI (NCI-H522 lung): 4220 nM; GI50 (NCI/ADR-RES ovarian): 1890 nM; TGI (NCI/ADR-RES ovarian): 3890 nM; GI50 (OVCAR-3 ovarian): 912 nM; TGI (OVCAR-3 ovarian): 2240 nM; GI50 (OVCAR-4 ovarian): 1400 nM; TGI (OVCAR-4 ovarian): 2950 nM; GI50 (OVCAR-5 ovarian): 2200 nM; TGI (OVCAR-5 ovarian): 4150 nM; GI50 (OVCAR-8 ovarian): 1790 nM; TGI (OVCAR-8 ovarian): 4600 nM; GI50 (PC-3 prostate): 813 nM; TGI (PC-3 prostate): 2330 nM; GI50 (RPMI-8226 leukemia): 1980 nM; TGI (RPMI-8226 leukemia): 4070 nM; TGI (RXF 393 renal): 350 nM; GI50 (SF-268 CNS): 1700 nM; TGI (SF-268 CNS): 3290 nM; GI50 (SF-295 CNS): 1840 nM; TGI (SF-295 CNS): 3650 nM; GI50 (SF-539 CNS): 1750 nM; TGI (SF-539 CNS): 3130 nM; GI50 (SK-MEL-2 melanoma): 3060 nM; TGI (SK-MEL-2 melanoma): 10600 nM; GI50 (SK-MEL-28 melanoma): 685 nM; TGI (SK-MEL-28 melanoma): 1730 nM; GI50 (SK-MEL-5 melanoma): 1470 nM; TGI (SK-MEL-5 melanoma): 2910 nM; GI50 (SK-OV-3 ovarian): 2040 nM; TGI (SK-OV-3 ovarian): 4150 nM; GI50 (SN12C renal): 1780 nM; TGI (SN12C renal): 3360 nM; GI50 (SNB-19 CNS): 366 nM; TGI (SNB-19 CNS): 2300 nM; GI50 (SNB-75 CNS): 1440 nM; TGI (SNB-75 CNS): 3080 nM; GI50 (SR leukemia): 1680 nM; GI50 (SW-620 colon): 348 nM; TGI (SW-620 colon): 1220 nM; GI50 (T-47D breast): 572 nM; TGI (T-47D breast): 2120 nM; GI50 (TK-10 renal): 2260 nM; TGI (TK-10 renal): 4660 nM; GI50 (U251 CNS): 1870 nM; TGI (U251 CNS): 3550 nM; GI50 (UACC-257 melanoma): 2170 nM; TGI (UACC-257 melanoma): 3890 nM; GI50 (UACC-62 melanoma): 1760 nM; TGI (UACC-62 melanoma): 3280 nM; GI50 (UO-31 renal): 1760 nM; TGI (UO-31 renal): 3390 nM
